Assay [1] deals with primary human fibroblasts derived from IPF patients (LL29 cells). Nature of the assay: Inhibition of fibrosis: TGF-β1-treated primary human fibroblasts from IPF patients (LL29), αSMA staining. Conditions: Fibroblast, 96 h, TGF-β1 20 ng/mL, 4 days, % αSMA-positive cells. Type of assay: cell-based. From the text: The above synthesized compounds were screened using primary human fibroblasts (derived from IPF patients) treated with TGF-β1 to determine their ability to inhibit the fibrotic process.
Primary human fibroblasts derived from IPF patients (LL29 cells) [^1Xiaoqiu Liu, et. al., “Fibrotic Lung Fibroblasts Show Blunted Inhibition by cAMP Due to Deficient cAMP Response Element-Binding Protein Phosphorylation”, Journal of Pharmacology and Experimental Therapeutics (2005), 315(2), 678-687; ^2Watts, K. L., et. al., “RhoA signaling modulates cyclin D1 expression in human lung fibroblasts; implications for idiopathic pulmonary fibrosis”, Respiratory Research (2006), 7(1), 88] were obtained from American Type Culture Collection (ATCC) and expanded in F12 medium supplemented with 15% Fetal Bovine Serum and Penicillin/Streptomycin.
Each compound was dissolved in DMSO as a 10 mM stock and used to prepare compound source plates. Serial dilution (1:2, 11-point dose-response curves from 10 μM to 1.87 nM) and compound transfer was performed using the ECHO 550 (Labcyte, Sunnyvale, Calif.) into 384-well clear bottom assay plates (Greiner Bio-One) with appropriate DMSO backfill for a final DMSO concentration of 0.1%. LL29 cells were plated at 1,500 cells/well in 80 μl/well F12 medium supplemented with 1% Fetal Bovine Serum. One hour after addition of the cells, TGF-β1 (Peprotech; 20 ng/mL) was added to the plates to induce fibrosis (ref 1 and 2 above). Wells treated with TGF-β1 and containing DMSO were used as controls. Cells were incubated at 37° C. and 5% CO2 for 4 days. Following incubation for 4 days, SYTOX green nucleic acid stain (Life Technologies [Thermo Fisher Scientific]) was added to the wells at a final concentration of 1 uM and incubated at room temperature for 30 min. Cells were then fixed using 4% formaldehyde (Electron Microscopy Sciences), washed 3 times with PBS followed by blocking and permeabilization using 3% Bovine Serum Albumin (BSA; Sigma) and 0.3% Triton X-100 (Sigma) in PBS. Cells were then stained with antibody specific to α-smooth muscle actin (αSMA; Abcam) (ref 1 and 2 above) in 3% Bovine Serum Albumin (BSA; Sigma) and 0.3% Triton X-100 (Sigma) in PBS, and incubated overnight at 4° C. Cells were then washed 3 times with PBS, followed by incubation with Alexa Flor-647 conjugated secondary antibody (Life Technologies [Thermo Fisher Scientific]) and DAPI at room temperature for 1 hour. Cells were then washed 3 times with PBS and plates were sealed for imaging. αSMA staining was imaged by excitation at 630 nm and emission at 665 nm and quantified using the Compartmental Analysis program on the CellInsight CX5 (Thermo Scientific). Dead or apoptotic cells were excluded from analysis based on positive SYTOX green staining. % of total cells positive for αSMA were counted in each well and normalized to the average of 11 wells treated with TGF-β1 on the same plate using Dotmatics' Studies Software. The normalized averages (fold change over untreated) of 3 replicate wells for each compound concentration were used to create dose-responses curves and EC50 values were calculated using non-linear regression curve fit in the Dotmatics' Studies Software. The EC50 values are reported.

In assay [2] the test system is Wnt activity (Sp5-Luc reporter, SW480 colon carcinoma cells). Description: Screening assay for Wnt activity: Sp5-Luc reporter gene assay in SW480 cells. It counts as cell-based. Conditions: Homo sapiens, 42 h incubation, luminescence. In outline: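 IC50 values come from variable-slope four-parameter fits of luciferase signal normalized to DMSO wells. Stable Sp5-Luc reporter SW480 colon carcinoma cells were exposed to compounds in a 3-fold dilution series (source plates from 10 mM stock) for forty-two hours at 37 °C.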
On the technique in general: In a reporter assay the amount or activity of a reporter protein is the signal.

With `CS(=O)(=O)NCc1cc(F)cc(-c2nccc3[nH]c(-c4n[nH]c5ccc(-c6cncc(NC(=O)Cc7ccccc7)c6)cc45)nc23)c1` [Compound 400, N-(5-(3-(4-(3-Fluoro-5-(methylsulfonamidomethyl)phenyl)-1H-imidazo[4,5-c]pyridin-2-yl)-1H-indazol-5-yl)pyridin-3-yl)-2-phenylacetamide], a half-maximal response in assay [1] (EC50) required 9 nM. The IC50 (as a rule, the concentration that gives 50% inhibition) in assay [2] is > 10000 nM.
The matching figures for `Fc1ccc(-c2nccc3[nH]c(-c4n[nH]c5ccc(-c6cncc(CN7CCCC7)c6)cc45)nc23)s1` [Compound 326, 4-(5-Fluorothiophen-2-yl)-2-(5-(5-(pyrrolidin-1-ylmethyl)pyridin-3-yl)-1H-indazol-3-yl)-1H-imidazo[4,5-c]pyridine]: 940 nM and 284 nM.
For `Cc1ccc(-c2nccc3[nH]c(-c4n[nH]c5ccc(-c6cncc(NC(=O)C7CCC7)c6)cc45)nc23)s1` [Compound 358, N-(5-(3-(4-(5-Methylthiophen-2-yl)-1H-imidazo[4,5-c]pyridin-2-yl)-1H-indazol-5-yl)pyridin-3-yl)cyclobutanecarboxamide], the EC50 (usually the concentration that produces a half-maximal response) in assay [1] is 21 nM. The concentration for half-maximal inhibition (IC50) in assay [2] turned out to be 9 nM.
In turn, `Cc1ccc(-c2nccc3[nH]c(-c4n[nH]c5ccc(-c6cncc(NC(=O)CC(C)(C)C)c6)cc45)nc23)s1` [Compound 354, 3,3-Dimethyl-N-(5-(3-(4-(5-methylthiophen-2-yl)-1H-imidazo[4,5-c]pyridin-2-yl)-1H-indazol-5-yl)pyridin-3-yl)butanamide] yielded an EC50 in assay [1] of 86 nM. This compound returned an IC50 in assay [2] of 12.7 nM.
The matching figures for `CC(C)C(=O)Nc1cncc(-c2ccc3[nH]nc(-c4nc5c(N6CCN(C)CC6)nccc5[nH]4)c3c2)c1` [Compound 217, N-(5-(3-(4-(4-Methylpiperazin-1-yl)-1H-imidazo[4,5-c]pyridin-2-yl)-1H-indazol-5-yl)pyridin-3-yl)isobutyramide]: 4450 nM and 245 nM.
In assay [1], `CC(C)Nc1cncc(-c2ccc3[nH]nc(-c4nc5c(-c6cccnc6)nccc5[nH]4)c3c2)c1` [Compound 90, N-Isopropyl-5-(3-(4-(pyridin-3-yl)-1H-imidazo[4,5-c]pyridin-2-yl)-1H-indazol-5-yl)pyridin-3-amine] yielded an EC50 of 9 nM. This compound yielded an IC50 in assay [2] of 4 nM.
As for `O=C(Nc1cncc(-c2ccc3[nH]nc(-c4nc5c(-c6ccccn6)nccc5[nH]4)c3c2)c1)C1CCC1` [Compound 150, N-(5-(3-(4-(Pyridin-2-yl)-1H-imidazo[4,5-c]pyridin-2-yl)-1H-indazol-5-yl)pyridin-3-yl)cyclobutanecarboxamide], the response in assay [1] was half-maximal at 1520 nM (EC50). Moreover, in assay [2], the IC50 is 51.4 nM.
The matching figures for `CC(C)(C)CC(=O)Nc1cncc(-c2ccc3[nH]nc(-c4nc5c(-c6ccccc6F)nccc5[nH]4)c3c2)c1` [Compound 68, N-(5-(3-(4-(2-Fluorophenyl)-1H-imidazo[4,5-c]pyridin-2-yl)-1H-indazol-5-yl)pyridin-3-yl)-3,3-dimethylbutanamide]: 9 nM and 20 nM.
Taken in the same sequence, the figures for `CCNCc1cncc(-c2ccc3[nH]nc(-c4nc5c(-c6ccccn6)nccc5[nH]4)c3c2)c1` [Compound 136, N-((5-(3-(4-(Pyridin-2-yl)-1H-imidazo[4,5-c]pyridin-2-yl)-1H-indazol-5-yl)pyridin-3-yl)methyl)ethanamine] were 9 nM and 3060 nM.
The matching figures for `Cc1cn(-c2nccc3[nH]c(-c4n[nH]c5ccc(-c6cncc(NC(=O)C7CCC7)c6)cc45)nc23)cn1` [Compound 202, N-(5-(3-(4-(4-Methyl-1H-imidazol-1-yl)-1H-imidazo[4,5-c]pyridin-2-yl)-1H-indazol-5-yl)pyridin-3-yl)cyclobutanecarboxamide]: 13 nM and < 1 nM.
`Cc1ccncc1-c1ccc2[nH]nc(-c3nc4c(-c5cc(F)cc(CNS(C)(=O)=O)c5)nccc4[nH]3)c2c1` [Compound 395, N-(3-Fluoro-5-(2-(5-(4-methylpyridin-3-yl)-1H-indazol-3-yl)-1H-imidazo [4,5-c]pyridin-4-yl)benzyl)methanesulfonamide] returned an EC50 in assay [1] of 26 nM. This compound returned an IC50 in assay [2] of 85 nM.
In the case of `CN(C)CC(=O)Nc1cncc(-c2ccc3[nH]nc(-c4nc5c(-c6cccc(F)c6)nccc5[nH]4)c3c2)c1` [Compound 2251, 2-(Dimethylamino)-N-(5-(3-(4-(3-fluorophenyl)-1H-imidazo[4,5-c]pyridin-2-yl)-1H-indazol-5-yl)pyridin-3-yl)acetamide], in assay [1], the response was half-maximal at 75 nM (EC50). In addition, the IC50 in assay [2] was determined as 124 nM.
As to `O=C(Nc1cncc(-c2ccc3[nH]nc(-c4nc5c(-c6ccccc6F)nccc5[nH]4)c3c2)c1)C1CCCC1` [Compound 73, N-(5-(3-(4-(2-Fluorophenyl)-1H-imidazo[4,5-c]pyridin-2-yl)-1H-indazol-5-yl)pyridin-3-yl)cyclopentanecarboxamide], the EC50 in assay [1] was 9 nM. The IC50 in assay [2] is 8 nM.
Taken in the same sequence, the figures for `Fc1cccc(-c2nccc3[nH]c(-c4n[nH]c5ccc(-c6cncc(CN7CCC(F)(F)C7)c6)cc45)nc23)c1` [Compound 25, 2-(5-(5-((3,3-Difluoropyrrolidin-1-yl)methyl)pyridin-3-yl)-1H-indazol-3-yl)-4-(3-fluorophenyl)-1H-imidazo[4,5-c]pyridine] were 56 nM and 10 nM.
Taken in the same sequence, the figures for `CN1CCN(c2nccc3[nH]c(-c4n[nH]c5ccc(-c6cncc(NC(=O)C7CCCC7)c6)cc45)nc23)CC1` [Compound 229, N-(5-(3-(4-(4-Methylpiperazin-1-yl)-1H-imidazo[4,5-c]pyridin-2-yl)-1H-indazol-5-yl)pyridin-3-yl)cyclopentanecarboxamide] were 9990 nM and 711 nM.
Regarding `Fc1cccc(-c2nccc3[nH]c(-c4n[nH]c5ccc(C6CCNCC6)cc45)nc23)c1` [Compound 1769, 4-(3-Fluorophenyl)-2-(5-(piperidin-4-yl)-1H-indazol-3-yl)-1H-imidazo[4,5-c]pyridine], the EC50 in assay [1] was 670 nM. For the same compound, 2340 nM corresponded to half-maximal inhibition in assay [2] (IC50).
The matching figures for `CC(C)CC(=O)Nc1cncc(-c2ccc3[nH]nc(-c4nc5c(-c6ccc(F)cc6)nccc5[nH]4)c3c2)c1` [Compound 28, N-(5-(3-(4-(4-Fluorophenyl)-1H-imidazo[4,5-c]pyridin-2-yl)-1H-indazol-5-yl)pyridin-3-yl)-3-methylbutanamide]: 9 nM and 9 nM.
Taken in the same sequence, the figures for `Fc1cccc(-c2nccc3[nH]c(-c4n[nH]c5ccc(-c6cncc(OC7CCNCC7)c6)cc45)nc23)c1` [Compound 1776, 4-(3-Fluorophenyl)-2-(5-(5-(piperidin-4-yloxy)pyridin-3-yl)-1H-indazol-3-yl)-1H-imidazo[4,5-c]pyridine] were 38 nM and 778 nM.
For the compound `Cc1cn(-c2nccc3[nH]c(-c4n[nH]c5ccc(-c6cncc(NC(=O)CC(C)C)c6)cc45)nc23)cn1` [Compound 184, 3-Methyl-N-(5-(3-(4-(4-methyl-1H-imidazol-1-yl)-1H-imidazo[4,5-c]pyridin-2-yl)-1H-indazol-5-yl)pyridin-3-yl)butanamide], the EC50 in assay [1] was found to be 49 nM. This compound also came in with an IC50 in assay [2] of 2 nM.
As for `CC(C)(C)C(=O)Nc1cncc(-c2ccc3[nH]nc(-c4nc5c(-c6ccc(F)s6)nccc5[nH]4)c3c2)c1` [Compound 320, N-(5-(3-(4-(5-Fluorothiophen-2-yl)-1H-imidazo[4,5-c]pyridin-2-yl)-1H-indazol-5-yl)pyridin-3-yl)pivalamide], the EC50 in assay [1] is 115 nM. Further, 5.2 nM corresponded to half-maximal inhibition in assay [2] (IC50).
Taken in the same sequence, the figures for `CC(C)Nc1cncc(-c2ccc3[nH]nc(-c4nc5c(-c6ccc(F)cc6)nccc5[nH]4)c3c2)c1` [Compound 38, 5-(3-(4-(4-Fluorophenyl)-1H-imidazo[4,5-c]pyridin-2-yl)-1H-indazol-5-yl)-N-isopropylpyridin-3-amine] were 126 nM and 42.9 nM.
